In paper PMC6155272, “Chroman-4-One Derivatives Targeting Pteridine Reductase 1 and Showing Anti-Parasitic Activity” (Molecules : A Journal of Synthetic Chemistry and Natural …, 2017):

Experiments:
A549 cells = assay: Cytotoxicity assay against A549 cells (CellTiter-Glo); type: cell-based; conditions: 100% = not cytotoxic, 0% = cytostatic
Description: The assays were performed using the CellTiter-Glo assay from Promega (Madison, AL, USA). The assay detects cellular adenosine triphosphate (ATP) content with the amount of ATP being directly proportional to the number of cells present. The A549 cells were obtained from DSMZ (German Collection of Microorganisms and Cell Cultures, Braunschweig, Germany) and W1-38 cells were obtained from ATCC (ATCC® CCL-75™) and were grown in Dulbecco's Modified Eagle Medium (DMEM) from Capricorn Scientific GmbH, Ebsdorfergrund, Germany with fetal bovine serum (FBS) (10% v/v) from Capricorn Scientific GmbH, Ebsdorfergrund, Germany, streptomycin (100 μg/mL) and penicillin G (100 U/mL).

CYP2C19 = molecular target: T1, CYP2C19 (Homo sapiens, UniProt P33261); assay: Cytochrome P450 2C19 assay (P450-Glo); type: in vitro ADME; conditions: for inhibition at 10 µM: human
T1 construct: purchased Promega; host or cells: baculovirus-infected insect cells
Source text: These assays made use of the PromegaP450-Glo™ (Madison, AL, USA) assay platform. Each CYP450 assay includes microsomal preparations of cytochromes from baculovirus-infected insect cells.

[1] = molecular target: T2, Leishmania major pteridine reductase 1 (LmPTR1) (Leishmania major, UniProt Q01782); assay: LmPTR1 enzyme reporter assay (cytochrome-c reduction, 550 nm); type: biochemical; conditions: for IC50: compounds 1–3, SD agreed to ±10%; for inhibition at 50 µM: read-out: % Inhibition LmPTR1 (50 μM)
T2 construct: made in house
T2 sequence (Q01782 1-288): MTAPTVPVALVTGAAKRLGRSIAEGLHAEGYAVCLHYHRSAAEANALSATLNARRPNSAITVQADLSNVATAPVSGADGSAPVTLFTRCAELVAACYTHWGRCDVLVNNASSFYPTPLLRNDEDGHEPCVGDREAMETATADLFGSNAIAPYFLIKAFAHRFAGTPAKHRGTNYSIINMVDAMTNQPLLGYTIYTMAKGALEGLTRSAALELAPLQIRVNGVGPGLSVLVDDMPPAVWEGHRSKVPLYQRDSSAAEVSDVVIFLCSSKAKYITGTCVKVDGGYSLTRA
Description: (§1) TbPTR1 and LmPTR1 were purified as reported in literature. The enzyme kinetic profile of each selected protein was characterized by a spectrophotometric assay. The experimental assay consists of enzyme kinetic reaction monitoring at 340 nm for a total time of 180 s. The enzyme kinetic activity was measured at steady-state concentration of 7,8-dihydro-L-biopterin (H2B) and NADPH substrates equal to 50 and 120 µM and varying the enzyme concentration in the 0.001–0.006 µM and 0.005–0.010–0.015–0.020–0.025–0.030 µM range for Lm- and TbPTR1, respectively. The resulting kcat values were equal to 0.68 (s^−1) and 7.2 (s^−1) for Tb- and LmPTR1, respectively. For both TbPTR1 and LmPTR1, the Km value evaluation assay for H2B- and NADPH-substrates was performed in the 0.3-0.6–0.9–1.2–2.4–4.8 µM and 3.0–6.0–12.0–40.0–90.0–190.0 µM concentrations range, respectively.
(§2) Compounds 1A–3A were evaluated as reported in our previous paper. The novel synthesized compounds 1–3 were tested towards TbPTR1 and LmPTR1 using the in vitro TbPTR1/LmPTR1 enzyme reporter assay. The experimental procedure consists of monitoring the non-enzymatic reduction reaction of cytochrome-c at 550 nm, related to the reduction reaction of H2B to tetrahydrobiopterin (H4B) by using NADPH as the cofactor. TbPTR1 and LmPTR1 enzyme activity was assayed in a buffer containing 20 mM sodium citrate (pH 6.0) in a final experimental volume equal to 600 µL. The final reaction mixture contained different substrates added in the following order: TbPTR1/LmPTR1 (0.018 µM/0.002 µM) in 20 mM Tris-HCl, glycerol 10% (v/v), pH 7.5; H2B at a final concentration equal to 0.3 µM; cytochrome-c (80 µM); Milli-Q water to a final volume of 600 µL and NADPH to a final concentration of 500 µM. Before the addition of NADPH, the reaction mixture was incubated for 10 min at 30 °C and 80 RPM. To allow the starting of the reaction, NADPH was added and the enzyme reaction was detected for a total time of 10 min at 30 °C, 550 nm. The inhibition profile characterization of compounds 1–3 was performed with a DU-640 spectrophotometer (Beckman Coulter, Brea, CA, USA). Each compound was assayed in duplicate against Tb/LmPTR1 target enzymes in the 0–10–25–50–80–150 µM concentrations range. At the different concentration values, the compounds were added to the reaction mixture (enzyme, H2B, cytochrome-c in 20 mM sodium citrate buffer and Milli-Q water) and incubated for 10 min at 30 °C, 80 RPM. The reaction was initiated by the addition of NADPH (500 µM) and monitored for 10 min at 30 °C, 550 nm. The absorbance values were processed by software analysis and transformed into the corresponding slopes. The percentages of inhibition and the IC50 values were determined.

[2] = test system: L. infantum (MHOM/BR/1972/BH46) intracellular amastigotes; assay: Activity against L. infantum intramacrophage amastigotes (high-content imaging); type: cell-based, Leishmania infantum; conditions: 50 μM, amastigotes; for inhibition at 50 µM: Leishmania infantum, read-out: % inh. L. infantum (50 μM)
Description: […] THP-1 cells were plated onto 384-well plates in Roswell Park Memorial Institute (RPMI) 1640 medium, Hyclone, GE Healthcare Life Sciences (Issaquah, WA, USA) containing 50 ng/mL phorbol 12-myristate 13-acetate (PMA, Sigma-Aldrich, Saint Louis, MS, USA), and incubated for 48 h. Then, 6 day-old promastigotes were added, at a ratio of 50 parasites per each THP-1 cell seeded earlier. After 24 h of infection, negative controls (0.5% DMSO), positive controls (10 μM amphotericin B) or compounds were added to the plate. Assay plates were incubated for 48 h, and then fixed with 4% paraformaldehyde and stained with Draq 5. The Operetta high-content automated imaging system was used to acquire images and the Harmony Software was optimized to quantify the host cell number, the infection ratio and the number of parasites per infected cell. The ratio between infected cells and total number of cells is then calculated, and defined as the Infection Ratio (IR). The raw data for IR values was normalized to negative—DMSO (mock)-treated infected cells—and positive (non-infected cells) controls to determine the normalized antiparasitic activity.

[3] = molecular target: T3, Trypanosoma brucei pteridine reductase 1 (TbPTR1) (Trypanosoma brucei brucei, UniProt O76290); assay: TbPTR1 enzyme reporter assay (cytochrome-c reduction, 550 nm); type: biochemical; conditions: for IC50: compounds 1–3, SD agreed to ±10%; for inhibition at 50 µM: read-out: % Inhibition TbPTR1 (50 μM), 50 μM
T3 construct: made in house
T3 sequence (O76290 1-268): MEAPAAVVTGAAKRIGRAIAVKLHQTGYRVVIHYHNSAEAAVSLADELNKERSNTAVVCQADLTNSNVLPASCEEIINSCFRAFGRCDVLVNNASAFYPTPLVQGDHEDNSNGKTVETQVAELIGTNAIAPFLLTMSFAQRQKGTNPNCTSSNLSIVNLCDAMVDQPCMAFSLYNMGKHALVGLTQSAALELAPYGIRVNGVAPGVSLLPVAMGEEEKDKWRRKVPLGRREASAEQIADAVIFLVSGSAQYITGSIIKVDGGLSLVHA
Description: as §1, §2

T1 sequence (P33261 whole entry): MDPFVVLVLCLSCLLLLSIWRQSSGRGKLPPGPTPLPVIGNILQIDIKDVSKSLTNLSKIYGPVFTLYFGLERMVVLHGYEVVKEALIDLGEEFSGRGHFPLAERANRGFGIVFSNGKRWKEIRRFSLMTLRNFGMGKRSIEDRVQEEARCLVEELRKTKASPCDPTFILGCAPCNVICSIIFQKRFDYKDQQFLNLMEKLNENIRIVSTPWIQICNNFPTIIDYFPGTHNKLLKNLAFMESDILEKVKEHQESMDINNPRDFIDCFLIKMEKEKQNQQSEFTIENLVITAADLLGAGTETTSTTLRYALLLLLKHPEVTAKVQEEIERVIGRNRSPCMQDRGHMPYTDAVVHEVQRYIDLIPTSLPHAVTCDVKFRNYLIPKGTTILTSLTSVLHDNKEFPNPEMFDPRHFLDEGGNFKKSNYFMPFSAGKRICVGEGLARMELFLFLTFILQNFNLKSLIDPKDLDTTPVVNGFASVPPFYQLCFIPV

| SMILES | % Cell growth A549 (10 μM) (A549 cells) | IC50 (CYP2C19) | inhibition at 10 µM (CYP2C19) | IC50 [1] | inhibition at 50 µM [1] | inhibition at 50 µM [2] | % Inhibition TbPTR1 (50 μM) ([3]; 50 μM, compounds 1–3 and control) | IC50 [3] | inhibition at 50 µM ([3]; compounds 1–3 and control) | % inh. L. infantum (50 μM) [2] |
| --- | --- | --- | --- | --- | --- | --- | --- | --- | --- | --- |
| O=C1CC(c2cccc(O)c2)Oc2ccc(O)cc21 (centres unmarked) [Compound 1] | 137% | 1 µM | 77.2% | 57 µM | 50.4% | 31% | 81% | 31 µM | 81.3% | – |
| O=C1CC(c2ccc(O)cc2)Oc2ccc(O)cc21 (centres unmarked) [Compound 2] | 105% | 4 µM | 44.5% | 35 µM | 56% | 29% | – | 133 µM | 17.7% | – |
| O=C1CC(c2ccc(O)c(O)c2)Oc2ccc(O)cc21 (centres unmarked) [Compound 3] | 124% | 5 µM | 2.68% | 36 µM | 69% | 3% | – | 82 µM | 34.6% | inactive |
